A short description of data set [1]: Drug uptake in human HN cells overexpressing integrin alphaVbeta6 at 1 uM measured within 3 mins by Hoechst 33342 staining based fluorescence analysis. Conditions: 0.05 h. It is filed as ADME, cell-based.
Data set [2] can be described thus: Drug uptake in human HN cells overexpressing integrin alphaVbeta6 at 1 uM measured at 60 to 300 mins by Hoechst 33342 staining based fluorescence analysis. The class given is ADME, cell-based. Conditions: time 60-300 min.
Data set [3] can be described thus: Drug uptake in human OV-MZ-6 cells overexpressing integrin […] at 1 uM measured after 300 mins by Hoechst 33342 staining based fluorescence analysis. It is filed as ADME, cell-based. Particulars: ov-mz-6, 5 h.
A short description of data set [4]: Drug localization in cell membrane of human RKO cells overexpressing integrin alpha5beta1 at 1 uM measured within 3 mins by CellMask green staining based fluorescence analysis. The class given is ADME, cell membranes. Particulars: 0.05 h.
Data set [5] in a line: Drug localization in cell membrane of human RKO cells overexpressing integrin alpha5beta1 at 1 uM measured at 30 mins by CellMask green staining based fluorescence analysis. It is filed as ADME, cell membranes. Conditions: 0.5 h.
Data set [6] in a line: Drug uptake in human M21 cells overexpressing integrin alphaVbeta3 at 1 uM measured at 60 to 300 mins by Hoechst 33342 staining based fluorescence analysis. The class given is ADME, cell-based. Particulars: m21, 1 µM, time 60-300 min.
Data set [7] in a line: Drug uptake in human RKO cells overexpressing integrin alpha5beta1 at 1 uM measured at 60 to 300 mins by Hoechst 33342 staining based fluorescence analysis. It is filed as ADME, cell-based. Conditions: time 60-300 min.
The test system of data set [8] is M21. Briefly: Inhibition of cell migration in human M21 cells expressing integrin alphaVbeta3 assessed as delay in wound gap closure at 1 nM measured after 9 to 72 hrs by wound scratch assay. The class given is functional, cell-based. Conditions: time 9-72 hrs.
The subject of a further data set is OV-MZ-6. Briefly: Inhibition of cell migration in human OV-MZ-6 cells expressing integrin alpha5beta1 assessed as delay in wound gap closure at 1 to 1000 nM measured after 24 to 72 hrs by wound scratch assay relative to control. It is filed as functional, cell-based. Conditions: dose 1-1000 nM, time 24-72 hrs.
Data set [9] has as its target T1, Integrin alpha-5/beta-1 (Homo sapiens, UniProt P05556+P08648). Briefly: Agonist activity at integrin alpha5beta1 in human OV-MZ-6 cells assessed as fold increase in p-ERK1/2 expression at 1 uM incubated for 24 hrs by Western blot analysis. Particulars: filed as agonist. The class given is cell-based.
Data set [10] concerns the target T1, Integrin alpha-5/beta-1. Put plainly: Agonist activity at integrin alpha5beta1 in human OV-MZ-6 cells assessed as increase in FAK expression at 1 to 1000 nM measured after 5 to 60 mins by Western blot analysis. It is filed as cell-based. Conditions: dose 1-1000 nM, time 5-60 min. For orientation: In western blotting, separated proteins are transferred to a membrane and probed.

For data set [11], the target named is T1, Integrin alpha-5/beta-1. Briefly: Agonist activity at integrin alpha5beta1 in human OV-MZ-6 cells assessed as increase in p-FAK expression at 1 nM measured after 30 to 60 mins by Western blot analysis. It is filed as cell-based. Conditions: time 30-60 min.
Data set [12] in a line: Inhibition of cell migration in human OV-MZ-6 cells expressing integrin alpha5beta1 assessed as cell coverage at 1 uM measured within 72 hrs by wound scratch assay relative to control. It is filed as functional. Details: scale not given: the % may be the effect or the level left.
Data set [13] has as its system M21. Put plainly: Inhibition of cell migration in human M21 cells expressing integrin alphaVbeta3 assessed as delay in wound gap closure at 1 uM measured after 72 hrs by wound scratch assay. It is filed as functional, cell-based.
Data set [14] deals with M21. Briefly: Inhibition of cell migration in human M21 cells expressing integrin alphaVbeta3 assessed as cell coverage at 1 uM measured within 72 hrs by wound scratch assay (reference value: 95 %). Also on record: scale not given: the % may be the effect or the level left. It is filed as functional.
The test system of data set [15] is M21. Briefly: Inhibition of cell adhesion in human M21 cells expressing integrin alphaVbeta3 at 1 uM measured after 48 hrs by microscopic imaging analysis. The class given is functional, cell-based.
For data set [16], the system named is M21. Briefly: Inhibition of cell adhesion in human M21 cells expressing integrin alphaVbeta3 at 1 nM measured after 48 hrs by microscopic imaging analysis. The class given is functional, cell-based.

Activity calls are given as the source filed them. The rule behind the calls is not given here.

`CC(C)C[C@@H]1NC(=O)[C@H](CC(=O)O)NC(=O)CNC(=O)[C@H](CCCNC(=N)N)NC(=O)[C@H](Cc2ccccc2)NC(=O)[C@H](CCCCNC(=O)CCCCCNC(=O)CCCCC[N+]2=C(/C=C/C=C/C=C3/N(C)c4ccc5ccccc5c4C3(C)C)C(C)(C)c3c2ccc2ccccc32)N(C)C(=O)[C@H]2CCCN2C(=O)[C@H](Cc2ccccc2)NC(=O)[C@H](C)NC1=O`: the Drug uptake result in data set [1] was “Active”; in data set [2] it was “Active”; in data set [3], “Not_active”.
In the case of `Cc1cc(OCCCNC(=O)CCCCCNC(=O)CCCCC[N+]2=C(/C=C/C=C/C=C3/N(C)c4ccc5ccccc5c4C3(C)C)C(C)(C)c3c2ccc2ccccc32)cc(C)c1C(=O)N[C@@H](CNC(=O)CNC(=O)c1cccc(NC(=N)N)c1)C(=O)O`, the Drug uptake entry is “Active” in data set [4], “Active” in data set [5], “Not_active” in [6] and “Active” in data set [7].
As for `CC(C)[C@H]1C(=O)N[C@@H](CCCNC(=N)N)C(=O)NCC(=O)N[C@@H](CC(=O)O)C(=O)N[C@H](Cc2ccccc2)C(=O)N1C` [CILENGITIDE], the inhibition result in the data set with M21 [8], in the data set on OV-MZ-6 and with M21 [16] was “inactive” in each case. Besides, the fold change (FC) at Integrin alpha-5/beta-1 [9] is 3.1. Also, the result at Integrin alpha-5/beta-1 [10] and on Integrin alpha-5/beta-1 [11] was inactive. Besides, the Activity in data set [12] was found to be 60%; in the data set on M21 [14], 40%. Besides, the inhibition result in the data set on M21 [13] and in the data set with M21 [15] was “Active” throughout.

(Values after ChEMBL document CHEMBL6153109, “Switching Roles─Exploring Concentration-Dependent Agonistic versus Antagonistic Behavior of Integrin Ligands” (J Med Chem, 2025).)
